Results: ChEMBL document CHEMBL2062486, “HIV-1 Integrase Inhibitor-Inspired Antibacterials Targeting Isoprenoid Biosynthesis” (ACS Med Chem Lett, 2012)
Values after ≈ are worked out from the molar mass of the structure shown. Active and inactive are the calls of the source. No cut-off for these calls is given here.

Experiments:
[1] = Inhibition of Staphylococcus aureus UPPS-mediated undecaprenyl pyrophosphate synthesis by continuous spectrophotometric assay
[2] = Inhibition of Escherichia coli UPPS-mediated undecaprenyl pyrophosphate synthesis by continuous spectrophotometric assay
[3] = molecular target: T1, Farnesyl pyrophosphate synthase (Homo sapiens) (UniProt P14324); assay: Inhibition of FPPS
T1 sequence (whole entry): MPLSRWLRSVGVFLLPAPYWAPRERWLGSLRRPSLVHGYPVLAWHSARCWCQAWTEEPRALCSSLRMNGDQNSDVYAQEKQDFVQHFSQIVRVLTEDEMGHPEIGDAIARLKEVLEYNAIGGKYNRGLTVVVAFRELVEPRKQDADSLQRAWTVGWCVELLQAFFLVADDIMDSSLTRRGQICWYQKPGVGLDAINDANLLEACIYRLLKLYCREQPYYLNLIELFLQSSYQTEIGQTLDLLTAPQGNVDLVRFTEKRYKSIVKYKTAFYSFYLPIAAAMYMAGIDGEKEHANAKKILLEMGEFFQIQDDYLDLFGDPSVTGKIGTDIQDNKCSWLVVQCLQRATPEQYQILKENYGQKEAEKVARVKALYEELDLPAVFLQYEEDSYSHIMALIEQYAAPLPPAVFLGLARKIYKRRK

[4] = molecular target: T2, 4,4'-diapophytoene synthase (Staphylococcus aureus, UniProt A9JQL9); assay: Inhibition of Staphylococcus aureus His6-tagged CrtM expressed in Escherichia coli BL21(DE3) using Farnesyl pyrophosphate as substrate incubated for 30 mins prior to substrate addition by continuous spectrophotometric assay
T2 sequence (A9JQL9 whole entry): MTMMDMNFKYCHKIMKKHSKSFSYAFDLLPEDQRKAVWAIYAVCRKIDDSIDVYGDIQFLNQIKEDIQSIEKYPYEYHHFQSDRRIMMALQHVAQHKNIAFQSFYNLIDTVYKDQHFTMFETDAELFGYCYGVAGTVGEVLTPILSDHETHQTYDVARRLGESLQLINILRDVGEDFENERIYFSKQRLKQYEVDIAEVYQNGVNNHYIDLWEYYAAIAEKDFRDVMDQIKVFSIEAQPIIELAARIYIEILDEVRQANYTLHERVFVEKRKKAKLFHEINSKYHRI

Enterococcus faecium = assay: Antibacterial activity against Enterococcus faecium U503; assay type: functional
Listeria monocytogenes = assay: Antibacterial activity against Listeria monocytogenes; assay type: functional
Bacillus anthracis = assay: Antibacterial activity against Bacillus anthracis str. Sterne; assay type: functional
Escherichia coli [5] = assay: Antibacterial activity against Escherichia coli K12; assay type: functional, organism-based; conditions: K-12
Escherichia coli [6] = assay: Antibacterial activity against Escherichia coli DH5alpha; assay type: functional, organism-based; conditions: DH5[alpha]
MCF7 = assay: Cytotoxicity against human MCF7 cells; assay type: cell-based
[7] = Antibacterial activity against Streptococcus pyogenes M1; assay type: functional, Streptococcus pyogenes serotype M1
[8] = molecular target: T2, 4,4'-diapophytoene synthase; assay: Inhibition of Staphylococcus aureus isolate WT CrtM-mediated staphyloxanthin synthesis after 72 hrs by spectrophotometry
Staphylococcus aureus = assay: Antibacterial activity against methicillin-resistant Staphylococcus aureus USA300; assay type: functional

Row | Compound | IC50 [1] [µM] | IC50 [2] [µM] | Ki [2] [µM] | inhibition [3] | IC50 [4] [µM] | MIC90 (Enterococcus faecium) [µg/mL] | MIC90 (Listeria monocytogenes) [µg/mL] | MIC90 (Bacillus anthracis) [µg/mL] | Activity (Escherichia coli [5]) | Activity (Escherichia coli [6]) | IC50 (MCF7) [µM] | MIC90 [7] [µg/mL] | IC50 [8] [µM] | Ki [4] [µM] | MIC90 (Staphylococcus aureus) [µg/mL]
1 | O=C(/C=C(\O)C(=O)O)NCCCc1cccc(-c2ccccc2)c1 | 1.8 | 0.24 | 0.12 | inactive | 24 |  |  |  |  |  |  |  |  |  | 
2 | CCCCCCCCCCOc1cccc(Cn2ccc(O)c(C(=O)O)c2=O)c1 | > 300 | > 300 |  | inactive | > 300 |  |  |  |  |  |  |  |  |  | 
3 | O=C(CP(=O)(O)O)NCCCc1cccc(Oc2ccccc2)c1 |  |  |  | inactive |  |  |  |  |  |  |  |  |  |  | 
4 | CCCCCCOc1cccc(CCCNC(=O)/C=C(\O)C(=O)O)c1 | 0.75 | 0.56 |  | inactive | > 300 |  |  |  |  |  |  |  |  |  | 
5 | CCCCCCCCCCOc1cccc(C(=O)/C=C(\O)C(=O)O)c1 | 0.73 | 1.9 |  | inactive | 67 | 4 (≈ 11.5 µM) | 4 (≈ 11.5 µM) | 0.5 (≈ 1.43 µM) | inactive | inactive | 30 | 1 (≈ 2.87 µM) |  |  | 
6 | O=P(O)(O)C(O)(Cc1cccc(-c2cccc3c2oc2ccccc23)c1)P(=O)(O)O |  | 0.3 |  |  |  |  |  |  |  |  |  |  |  |  | 
7 | O=C(/C=C(\O)C(=O)O)NCCCc1cccc(Oc2ccccc2)c1 |  | 2.2 |  | inactive | 24 |  |  |  |  |  |  |  | 4 | 0.25 | 
8 | CCCCCCCCOc1ccc(C(=O)/C=C(\O)C(=O)O)cc1 | 2 | 0.5 |  | inactive | > 300 | 4 (≈ 12.5 µM) | 4 (≈ 12.5 µM) | 0.5 (≈ 1.56 µM) | inactive | inactive | 30 | 1 (≈ 3.12 µM) |  |  | 0.25 (≈ 0.78 µM)
9 | CCCCCCOc1cccc(Cn2ccc(O)c(C(=O)O)c2=O)c1 |  | 27 |  | inactive | 45.3 |  |  |  |  |  |  |  | 33 | 0.45 | 
